Data reported in patent US20130183362A1, “SYNTHESIS OF ZINC ACRYLATE COPOLYMER FROM ACID FUNCTIONAL COPOLYMER, ZINC PYRITHIONE, AND COPPER COMPOUND” (ARCH CHEMICALS, INC., priority 2010, published 2013).
Like-named read-outs stand apart in the source and are kept apart here.

Details: SEM images; for Ave. Aspect Ratio (length/width): Hitachi S-300N, length divided by width
Description: All images were obtained using a Hitachi S-300N Scanning electron Microscope.
Procedure: Aspect ratio was determined by superimposing a micron scale over the particle images and visually comparing the width and length of the particles to the scale. Length divided by width determines the aspect ratio. The images were obtained using a Hitachi S-300N Scanning electron Microscope.

On1ccccc1=S.On1ccccc1=S.[Cu] [Sample 507C, copper pyrithione]
Ave. Aspect Ratio (length/width): 12.2

On1ccccc1=S.On1ccccc1=S.[Cu] [Sample 508D, copper pyrithione]
Ave. Aspect Ratio (length/width): 9.1

On1ccccc1=S.On1ccccc1=S.[Cu] [Sample 513, copper pyrithione]
particles having an aspect ratio greater than 15: none of the particles
Ave. Aspect Ratio (length/width): 4.3
Ave. Aspect Ratio (length/width) (listed as commercially available milled copper pyrithione): 4.3
